Paper PMC6219668 (Oncotarget, 2018)

System: panel of nearly 500 cancer cell lines
Assay: Cancer Cell Line Encyclopedia profiling, 3-day CellTiter-Glo
Format: cell-based
Conditions: Homo sapiens

Q: Which results are given for `CN(C)C(=O)c1cc2cnc(Nc3ccc(N4CCNCC4)cn3)nc2n1C1CCCC1` [Ribociclib, 7-cyclopentyl-2-(5-piperazin-1-yl-pyridin-2-ylamino)-7H-pyrrolo[2,3-d]pyrimidine-6-carboxylic acid dimethylamide]?
A: IC50 (NCI-H1666): > 8 µM; EC50 (NCI-H1693): 0.351 µM; IC50 (NCI-H1693): > 8 µM; EC50 (NCI-H1694): > 8 µM; IC50 (NCI-H1694): > 8 µM; EC50 (NCI-H1703): 1.11 µM; IC50 (NCI-H1703): > 8 µM; EC50 (NCI-H1792): > 8 µM; IC50 (NCI-H1792): > 8 µM; EC50 (NCI-H1793): 0.00418 µM; IC50 (NCI-H1793): > 8 µM; EC50 (NCI-H1944): 2.5 µM; IC50 (NCI-H1944): > 8 µM; EC50 (NCI-H1975): 1.05 µM; IC50 (NCI-H1975): > 8 µM; EC50 (NCI-H2009): > 8 µM; IC50 (NCI-H2009): > 8 µM; EC50 (NCI-H2030): 1.29 µM; IC50 (NCI-H2030): > 8 µM; EC50 (NCI-H2052): 0.0207 µM; IC50 (NCI-H2052): > 8 µM; EC50 (NCI-H2087): 0.338 µM; IC50 (NCI-H2087): > 8 µM; EC50 (NCI-H2122): > 8 µM; IC50 (NCI-H2122): 3.73 µM; EC50 (NCI-H2170): > 8 µM; IC50 (NCI-H2170): > 8 µM; EC50 (NCI-H2228): > 8 µM; IC50 (NCI-H2228): > 8 µM; EC50 (NCI-H2286): 0.506 µM; IC50 (NCI-H2286): > 8 µM; EC50 (NCI-H2444): > 8 µM; IC50 (NCI-H2444): > 8 µM; EC50 (NCI-H2452): 0.3 µM; IC50 (NCI-H2452): > 8 µM; EC50 (NCI-H3255): > 8 µM; IC50 (NCI-H3255): > 8 µM; EC50 (NCI-N87): > 8 µM; IC50 (NCI-N87): > 8 µM; EC50 (NUGC-3): > 8 µM; IC50 (NUGC-3): > 8 µM; EC50 (NUGC-4): 0.212 µM; IC50 (NUGC-4): 1.07 µM; EC50 (OC-314): > 8 µM; IC50 (OC-314): > 8 µM; EC50 (OCI-AML2): 0.838 µM; IC50 (OCI-AML2): 1.16 µM; EC50 (OCI-AML-5): 0.187 µM; IC50 (OCI-AML-5): > 8 µM; EC50 (OCI-Ly10): > 8 µM; IC50 (OCI-Ly10): > 8 µM; EC50 (OE33): > 8 µM; IC50 (OE33): > 8 µM; EC50 (OV-90): 0.0694 µM; IC50 (OV-90): > 8 µM; EC50 (OVCAR-3): > 8 µM; IC50 (OVCAR-3): > 8 µM; EC50 (OVCAR-4): > 8 µM; IC50 (OVCAR-4): > 8 µM; EC50 (OVCAR-8): > 8 µM; IC50 (OVCAR-8): > 8 µM; EC50 (OVSAHO): > 8 µM; IC50 (OVSAHO): > 8 µM; EC50 (P3HR-1): > 8 µM; IC50 (P3HR-1): > 8 µM; EC50 (P12-Ichikawa): 0.797 µM; IC50 (P12-Ichikawa): 3.74 µM; EC50 (P31-FUJ): > 8 µM; IC50 (P31-FUJ): > 8 µM; EC50 (PANC-03-27): > 8 µM; IC50 (PANC-03-27): > 8 µM; EC50 (PC-14): 4.03 µM; IC50 (PC-14): > 8 µM; EC50 (PLC-PRF-5): > 8 µM; IC50 (PLC-PRF-5): > 8 µM; EC50 (PSN1): 2.03 µM; IC50 (PSN1): > 8 µM; EC50 (Panc 02.03): > 8 µM; IC50 (Panc 02.03): > 8 µM; EC50 (Panc 04.03): > 8 µM; IC50 (Panc 04.03): > 8 µM; EC50 (Panc1005): > 8 µM; IC50 (Panc1005): > 8 µM; EC50 (Pfeiffer): > 8 µM; IC50 (Pfeiffer): > 8 µM; EC50 (RL95-2): 3.35 µM; IC50 (RL95-2): > 8 µM; EC50 (RPMI 8402): 0.951 µM; IC50 (RPMI 8402): 1.54 µM; EC50 (RPMI-7951): 0.807 µM; IC50 (RPMI-7951): > 8 µM; EC50 (RT-112): 0.545 µM; IC50 (RT-112): > 8 µM; EC50 (RVH-421): > 8 µM; IC50 (RVH-421): > 8 µM; EC50 (Raji): > 8 µM; IC50 (Raji): > 8 µM; EC50 (SAOS-2): > 8 µM; IC50 (SAOS-2): > 8 µM; EC50 (SBC-5): 2.3 µM; IC50 (SBC-5): > 8 µM; EC50 (SCC-9): 0.00254 µM; IC50 (SCC-9): > 8 µM; EC50 (SCaBER): 1.95 µM; IC50 (SCaBER): > 8 µM; EC50 (SF-126): > 8 µM; IC50 (SF-126): > 8 µM; EC50 (SF-295): 0.323 µM; IC50 (SF-295): > 8 µM; EC50 (SHP77): > 8 µM; IC50 (SHP77): > 8 µM; EC50 (SIG-M5): 0.0796 µM; IC50 (SIG-M5): 0.22 µM; EC50 (SJRH30): > 8 µM; IC50 (SJRH30): > 8 µM; EC50 (SJSA-1): 1.18 µM; IC50 (SJSA-1): > 8 µM; EC50 (SK-BR-3): > 8 µM; IC50 (SK-BR-3): > 8 µM; EC50 (SK-CO-1): 2.76 µM; IC50 (SK-CO-1): > 8 µM; EC50 (SK-ES1): 0.0436 µM; IC50 (SK-ES1): > 8 µM; EC50 (SK-HEP1): 0.373 µM; IC50 (SK-HEP1): > 8 µM; EC50 (SK-LMS-1): 1.26 µM; IC50 (SK-LMS-1): > 8 µM; EC50 (SK-LU-1): 0.682 µM; IC50 (SK-LU-1): > 8 µM; EC50 (SK-MEL-2): > 8 µM; IC50 (SK-MEL-2): > 8 µM; IC50 (SK-MEL-5): > 8 µM; EC50 (SK-MEL-24): > 8 µM; IC50 (SK-MEL-24): > 8 µM; EC50 (SK-MEL-30): > 8 µM; IC50 (SK-MEL-30): > 8 µM; EC50 (SK-MES-1): 5.26 µM; IC50 (SK-MES-1): 5.27 µM; EC50 (SK-MM-2): > 8 µM; IC50 (SK-MM-2): > 8 µM; EC50 (SK-N-AS): 0.457 µM; IC50 (SK-N-AS): > 8 µM; EC50 (SK-N-DZ): 0.88 µM; IC50 (SK-N-DZ): 3.44 µM; EC50 (SK-N-SH): > 8 µM; IC50 (SK-N-SH): 7.74 µM; EC50 (SK-OV-3): > 8 µM; IC50 (SK-OV-3): > 8 µM; EC50 (SKNBE2): 0.328 µM; IC50 (SKNBE2): 1.8 µM; EC50 (SNU1): 2.4 µM; IC50 (SNU1): > 8 µM; EC50 (SNU-16): > 8 µM; IC50 (SNU-16): > 8 µM; EC50 (SNU-182): > 8 µM; IC50 (SNU-182): > 8 µM; EC50 (SNU-387): > 8 µM; IC50 (SNU-387): > 8 µM; EC50 (SNU-398): 0.569 µM; IC50 (SNU-398): > 8 µM; EC50 (SNU-423): > 8 µM; IC50 (SNU-423): > 8 µM; EC50 (SNU-449): > 8 µM; IC50 (SNU-449): > 8 µM; EC50 (SNU-475): > 8 µM; IC50 (SNU-475): > 8 µM; EC50 (SNU-C2B): > 8 µM; IC50 (SNU-C2B): > 8 µM; EC50 (SU-DHL10): 5.75 µM; IC50 (SU-DHL10): 5.75 µM; EC50 (SU-DHL-4): 0.329 µM; EC50 (SU-DHL-6): 0.742 µM; IC50 (SU-DHL-6): > 8 µM; EC50 (SU-DHL-8): 1.6 µM; IC50 (SU-DHL-8): 3.73 µM; EC50 (SU.86.86): > 8 µM; IC50 (SU.86.86): > 8 µM; EC50 (SUP-T1): > 8 µM; IC50 (SUP-T1): > 8 µM; EC50 (SW48): 0.0194 µM; IC50 (SW48): > 8 µM; EC50 (SW480): 6.21 µM; IC50 (SW480): > 8 µM; EC50 (SW780): 0.159 µM; IC50 (SW780): > 8 µM; EC50 (SW900): 0.385 µM; IC50 (SW900): > 8 µM; EC50 (SW1088): > 8 µM; IC50 (SW1088): > 8 µM; EC50 (SW1353): > 8 µM; IC50 (SW1353): > 8 µM; EC50 (SW1417): > 8 µM; IC50 (SW1417): > 8 µM; EC50 (SW1573): 0.324 µM; IC50 (SW1573): > 8 µM; EC50 (SW1990): 0.593 µM; IC50 (SW1990): > 8 µM; EC50 (SW-403): > 8 µM; IC50 (SW-403): 4.34 µM; EC50 (SW-620): 0.45 µM; IC50 (SW-620): > 8 µM; EC50 (T47D): > 8 µM; IC50 (T47D): > 8 µM; EC50 (T98G): > 8 µM; IC50 (T98G): > 8 µM
